Source: article PMC10349806 (Nature Communications, 2023)
Values joined by “and” are separate entries in the source; they are usually repeats but may differ in a detail not shown here. Equal values may be shown once.

Biological target: T1, PfCRT variant F268A (Plasmodium falciparum, UniProt Q9N623, A220S/F268A/I356T/K76T/M74I/N326S/N75E/Q271E/R371I)
T1 sequence (Q9N623 1-424 M74I/N75E/K76T/A220S/F268A/Q271E/N326S/I356T/R371I): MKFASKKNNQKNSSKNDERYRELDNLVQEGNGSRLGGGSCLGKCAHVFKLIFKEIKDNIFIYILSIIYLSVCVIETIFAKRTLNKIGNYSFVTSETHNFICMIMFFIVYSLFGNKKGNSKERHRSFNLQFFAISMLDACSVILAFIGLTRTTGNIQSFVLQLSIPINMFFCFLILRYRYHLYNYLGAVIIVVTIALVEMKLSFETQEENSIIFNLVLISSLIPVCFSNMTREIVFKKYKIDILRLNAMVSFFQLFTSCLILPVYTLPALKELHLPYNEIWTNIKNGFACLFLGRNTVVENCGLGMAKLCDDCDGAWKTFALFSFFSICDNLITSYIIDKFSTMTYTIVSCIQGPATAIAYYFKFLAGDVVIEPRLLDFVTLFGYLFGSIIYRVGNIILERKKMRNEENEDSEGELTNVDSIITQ
Assay: CQ uptake assay, oocytes expressing F268A
Format: cell-based
Experimental: Site-directed mutagenesis of PfCRT^Dd2 was performed as described using the megaprimer method with overlap extension[21],[54]. The primer pairs used are listed in Supplementary Table 6. Please note that a codon-optimized and oocyte-adapted version of PfCRT^Dd2 was used[22] (Supplementary Fig. 16). The resulting DNA fragment was cloned into the SP64T expression vector and verified by sequencing.
Oocytes were obtained as described previously. Briefly, adult (>2 years old) female X. laevis frogs (NASCO) were anesthetized in a cooled solution of ethyl 3-amino benzoate methanesulfonate (0.1%, w/v), followed by a surgical removal of parts of the ovary. The ovary lobes were carefully dissected and small pieces of oocytes were incubated in Ca^2+-free ND96 buffer (96 mM NaCl, 2 mM KCl, 1 mM MgCl2 buffered with 5 mM HEPES/NaOH, pH 7.5) supplemented with collagenase D (0.1%, w/v; Roche), BSA (0.5%, w/v), and 9 mm Na2HPO4 at 18 °C for 14-16 h while gentle shaking. After incubation, the oocytes were carefully washed several times with ND96 buffer (96 mM NaCl, 2 mM KCl, 1.8 mM CaCl2, 1 mM MgCl2 buffered with 5 mM HEPES/NaOH, pH 7.5) supplemented with 100 mg l^−1 gentamycin). Defolliculated and healthy-looking stage V-VI oocytes were manually selected for RNA microinjection. The RNA was generated as following: The codon-optimized sequences of PfCRT variants were cloned into the pSP64T expression vector. After vector linearization using the restriction endonucleases BamHI or SalI (New England Biolabs), transcription was performed using the in vitro SP6 mMessage mMachine Kit (Ambion)[34]. The obtained RNA was kept at −80 °C and diluted with nuclease-free water to a concentration of 0.6 μg μl^−1. Precision-bore glass capillary tubes (3.5-inch glass capillaries; Drummond Scientific Co.) were pulled on a vertical puller (P-87 Flaming/Brown micropipette puller, Sutter Instrument Co.), graduated, and placed on a microinjector (Nanoject II Auto-Nanoliter Injector, Drummond Scientific Co.). 50 nl of nuclease-free water alone (control oocytes) or 50 nl of 0.6 μg μl^−1 RNA were injected under stereomicroscopic control. Injected oocytes were incubated for 46–72 h at 18 °C with twice-daily buffer changes before usage in experiments.
Drug uptake assays were performed as described previously[21],[22],[24],[34]. […] The direction of radio-labeled drug transport is here from the mostly acidic extracellular solution (pH 4.5 or 6.0, as indicated) into the oocyte cytosol (pH ∼ 7.2), which corresponds to the efflux of drug from the acidic digestive vacuole (pH 5.2) into the parasite cytoplasm (pH 7.2). The topology of PfCRT in the oolemma is such that both the N- and C-terminus face the extracellular milieu[3],[22]. In the parasite, the N- and C-terminus face the lumen of the digestive vacuole. CQ uptake kinetics were performed by incubating oocytes in ND96 buffer adjusted to a pH of 4.5, 5.0, 5.5, or 6.0 and supplemented with 50 nM [^3H]CQ and one of 7 different CQ concentrations (10 µM, 50 µM, 100 µM, 200 µM, 300 µM, 400 µM, 500 µM CQ). The reaction was stopped at the 60 min time point, which is in the linear uptake range[22],[34] (Supplementary Fig. 17). […] The radioactivity of each sample was measured using a liquid scintillation analyzer Tri-Carb 4910 TR (PerkinElmer). Oocytes that were injected with water instead of RNA were analyzed in parallel, representing the uptake of a drug by diffusion and/or endogenous permeation pathways. […]

[1] = F268A, 50 µM CQ, 1 h, mean ± SEM

## CCN(CC)CCCC(C)Nc1ccnc2cc(Cl)ccc12 (centres unmarked) [CQ, chloroquine]
[1]
  Activity at pH 4.5: 1.06 ± 0.19 pmol h-1 oocyte-1
  Activity at pH 6.0: 2.93 ± 0.28 pmol h-1 oocyte-1
F268A, CQ transport at pH 4.5 / pH 6.0
  R-value: 0.40 ± 0.10
pH 4.5, single replicates, Fig 1d left
  F268A transport activity pH 4.5: 0.75 pmol oocyte-1 h-1 and 1.37 pmol oocyte-1 h-1 and 0.63 pmol oocyte-1 h-1 and 1.50 pmol oocyte-1 h-1
pH 6.0, single replicates, Fig 1d left
  F268A transport activity pH 6.0: 3.49 pmol oocyte-1 h-1 and 2.31 pmol oocyte-1 h-1 and 3.48 pmol oocyte-1 h-1 and 2.45 pmol oocyte-1 h-1
